Laboratory results from US7763640B2, “Substituted oxyguanidines” (Bayer CorpScience AG, priority 2004, dated 2010).

Tests used:
[1] = tested on: green peach aphid (Myzus persicae); assay: Myzus test, spray treatment, Example F; type: in vivo; details: 500 g a.i./ha, China cabbage leaf sections
Protocol: (§1) To prepare a suitable active compound preparation 1 part by weight of the active compound is mixed with the given amount of solvent and the given amount of emulsifier and the concentrate is diluted to the desired concentration with water containing emulsifier.
China cabbage leaf sections (brassica pekinensis) that are infected with all stages of the green peach aphid (Myzus persicae) are sprayed with an active compound preparation at the desired concentration.
(§2) After the desired time the activity in % is determined. Here 100% means that all aphids were killed; 0% means that no aphids were killed.

[2] = tested on: fall army worm (Spodoptera frugiperda); assay: Spodoptera frugiperda test, Example G; type: in vivo; details: 500 g a.i./ha, cabbage leaves, immersion, caterpillars
Protocol: as §1
Cabbage leaves (Brassica oleracea) are treated by immersion in the active compound preparation at the desired concentration and infected with caterpillars of the fall army worm (Spodoptera frugiperda) while the leaves are still wet.
After the desired time the death rate in % is determined. Here 100% means that all caterpillars were killed; 0% means that no caterpillars were killed.

[3] = tested on: green peach aphid (Myzus persicae); assay: Myzus persicae test (cabbage leaves, immersion), Example A; type: in vivo; details: for Death rate in % after 6d: 1000 ppm, cabbage leaves (Brassica oleracea)
Protocol: (§3) To prepare a suitable active compound preparation 1 part by weight of the active compound is mixed with the given amount of solvent and the given amount of emulsifier and the concentrate is diluted to the desired concentration with water.
Cabbage leaves (Brassica oleracea) that are highly infested with the green peach aphid (Myzus persicae) are treated by immersion in the active compound preparation at the desired concentration.
(§4) After the desired time the death rate in % is determined. Here 100% means that all aphids were killed; 0% means that no aphids were killed.

[4] = tested on: green peach aphid (Myzus persicae); assay: Myzus persicae test, soil application, Example C; type: in vivo; details: pepper plant
Protocol: as §3
The active compound preparation is mixed with soil. The concentration given relates to the amount of active compound per unit volume soil (mg/l=ppm). The treated soil is filled into pots and planted with one pepper plant (Capsicum annuum). After one week infection is carried out with the green peach aphid (Myzus persicae).
as §2

[5] = tested on: cotton aphid (Aphis gossypii); assay: Aphis gossypii test, soil application, Example D; type: in vivo; details: cotton plant
Protocol: as §3
The active compound preparation is mixed with soil. The concentration given relates to the amount of active compound per unit volume soil (mg/l=ppm). The treated soil is filled into pots and planted with one cotton plant (Gossypium hirsutum). After a week infection is carried out with the cotton aphid (Aphis gossypii).
as §4

[6] = tested on: green peach aphid (Myzus persicae); assay: Myzus test, spray treatment, Example B; type: in vivo; details: Chinese cabbage leaves
Protocol: To prepare a suitable active compound preparation 1 part by weight of the active compound is mixed with the given amount of solvent and the given amount emulsifier and the concentrate is diluted to the desired concentration with water.
Chinese cabbage leaves (Brassica pekinensis) infested with all stages of the green peach aphid (Myzus persicae) were sprayed with an active compound preparation at the desired concentration.
as §4

[7] = tested on: white fly (Bemisia tabaci, resistant strain); assay: Bemisia tabaci test, resistant strain, Example E; type: in vivo; details: cotton leaf sections, immersion
Protocol: as §1
Leaf sections of cotton plants (Gossypium hirsutum) are treated by immersion in the active compound preparation at the desired concentration and after drying of the coating are infected with adults of the white fly (Bemisia tabaci, resistant strain).
After the desired time the death rate in % is determined. Here 100% means that all animals were killed; 0% means that no animals were killed.

physchem = details: pH 2
[8] = tested on: mixed thrips population (Frankliniella occidentalis); assay: Frankliniella occidentalis test, Example H; type: in vivo; details: 100 ppm, cotton plants, spraying
Protocol: as §1
Cotton plants (Gossypium hirsutum) are treated by spraying with the active compound preparation at the desired concentration and infected with a mixed thrips population (Frankliniella occidentalis).
After the desired time the death rate in % is determined. Here 100% means that all thrips were killed; 0% means that no thrips were killed.

With `CON/C(=N\C#N)NCc1ccc(Cl)nc1` the “Activity in % after 5d” value [1] was 100%.

For `CON/C(=N\[N+](=O)[O-])N(C)Cc1ccc(Cl)nc1`, the “Activity in % after 5d” value [1] was 100%.

In the case of `CON/C(=N\C#N)NCc1cnc(Cl)s1`, the “Death rate in % after 7d” value [2] is reported as 100%.

With `CON/C(=N\[N+](=O)[O-])NCc1ccc(Cl)nc1` [Example I-1, N-methoxy-N′-(2-chloropyrid-5-ylmethyl)nitroguanidine] the “Death rate in % after 6d” value [3] was 98%, the “Death rate in % after 7d” value ([4]; 8 ppm (mg/l soil)) was 100% and the “Death rate in % after 7d” value ([5]; 8 ppm (mg/l soil)) was 100%.

For `CCON/C(=N/[N+](=O)[O-])NCc1ccc(Cl)nc1` [Example I-2], the “Death rate in % after 4d” value ([6]; 500 ppm, after 4 d) was 100% and the “activity in Myzus test, spray treatment” value [6] was “good activity”.

With `CON/C(=N/[N+](=O)[O-])NCc1cnc(Cl)s1` [Example I-5] the “Death rate in % after 6d” value [3] was 98%, the “activity in Myzus persicae test” value ([3]; cabbage leaves) was “good activity” and the “Death rate in % after 7d” value ([4]; 0.25 ppm (mg/l soil)) was 85%. For the same molecule, the “activity in Myzus persicae test, soil application” value [4] was “good activity”, the “Death rate in % after 7d” value ([5]; 0.25 ppm (mg/l soil)) was 80% and the “activity in Aphis gossypii test, soil application” value [5] was “good activity”. For the same molecule, the “Death rate in % after 3d” value ([7]; 1000 ppm, after 3 d, adults) was 93%, the “activity in Bemisia tabaci test, resistant strain” value [7] was “good activity” and the logP (physchem) was 1.13.

For `CON/C(=N/[N+](=O)[O-])NCc1cnc(Cl)s1` [drawing 35], the “Death rate in % after 14d” value [8] was 90%.
